According to US20060270705A1, “Method for inhibiting lipid absorption and lipid absorption inhibitor” (Japan Tobacco Inc., priority 2005, published 2006):

How the values were obtained:
CETP = CETP activity in hamster plasma after oral dosing: [3H]CE transfer from donor [3H]CE-HDL3 to hamster apoB-containing lipoprotein; type: in vivo, normal syrian hamsters; conditions: proportion relative to control group = 100%; for CETP Inhibitory Activity (%): Test 1, plasma 4 hours after olive oil; for CETP Inhibitory Activity (%) (8 hours): Test 2, 30 mg/kg oral, plasma 8 hours after oil loading
Experimental: Potassium bromide (KBr) was added to plasma (40 mL) of a healthy subject, adjusted to have a specific density d=1.125 g/mL, and subjected to fractional ultracentrifugation (288,000×g, 4° C., 18 to 20 hr), and a fraction showing a specific density of d>1.125 g/mL (HDL3 fraction) was harvested. The obtained fraction was dialyzed against PBS solution [10 mmol/L Na2HPO4; 10 mmol/L NaH2PO4; 0.15 mol/L NaCl; 1 mmol/L EDTA (pH 7.4)]. Then, tritium-labeled cholesterol (37 MBq) was dissolved in 95% ethanol, gradually added to the above-mentioned HDL3 fraction with stirring and incubated at 37° C. for 18 to 24 hr. [By this operation, tritium-labeled cholesterol was esterified by the action of lecithin cholesterol acyl transferase (LCAT) present on the HDL3 surface and taken up into HDL3 as tritium-labeled cholesteryl ester ([^3H]CE)]. After incubation, KBr was added, the specific density was adjusted to d=1.21 g/mL, and subjected to fractional ultracentrifugation (285,000×g, 4° C., 70 to 90 hr), and a fraction of specific density […] was harvested. The obtained fraction was dialyzed against the aforementioned PBS solution to give HDL3 incorporating [^3H]CE ([^3H]CE-HDL3, specific density: 1.125<d<1.21, specific activity: 22,000-33,000 dpm/μL) as a donor lipoprotein.
(§1) Three kinds of CETP inhibitors (compound A: 40 mg/kg, compound B: 3 mg/kg, compound C: 3 mg/kg) suspended in 0.5% aqueous methylcellulose were orally administered to normal syrian hamsters (male, 13-week old). Only 0.5% aqueous methylcellulose was administered to the control group. After 30 minutes, olive oil at a dose of 2 mL/kg was orally loaded. Blood was collected from ophthalmic venous plexus 4 hours after the administration of olive oil, and plasma triglyceride (TG) concentration and CETP inhibitory activity were measured. Plasma triglyceride (TG) concentration was measured by enzymatic method. For CETP activity, the amount of [^3H]CE transferred from donor lipoprotein ([^3H]CE-HDL3) to acceptor lipoprotein (hamster apoB-containing lipoprotein) was used as index.
(§2) Using a test system similar to Test 1, the effects of compound B (30 mg/kg) and compound C (30 mg/kg) in normal syrian hamsters (male, 12-week old) were examined. Blood collection was carried out at 4 and 8 hours after oil loading, and plasma triglyceride (TG) concentration and CETP inhibitory activity were measured.

[1] = system: lipid absorption in the small intestine; assay: Inhibitory effect on lipid absorption in the small intestine: plasma triglyceride after oral olive oil loading in hamsters; type: in vivo, normal syrian hamsters; conditions: control group = 100%; for TG Concentration (%): Test 1, olive oil 2 mL/kg 30 min later, plasma 4 hours after olive oil, male 13-week old hamsters; for TG Concentration (4 hours) / TG Concentration (%) (8 hours): Test 2, 30 mg/kg oral, male 12-week old hamsters; for TG Concentration (4 hours): plasma 4 hours after oil loading; for TG Concentration (%) (8 hours): plasma 8 hours after oil loading
Experimental: Test of Inhibitory Effect on Lipid Absorption in the Small Intestine by Various CETP Inhibitors in Hamsters
as §1, §2

[2] = 3 mg/kg oral in 0.5% methylcellulose

SMILES	CETP Inhibitory Activity (%) (CETP; 40 mg/kg oral)	TG Concentration (%) ([1]; 40 mg/kg oral in 0.5% methylcellulose)	CETP Inhibitory Activity (%) (CETP; 3 mg/kg oral)	CETP Inhibitory Activity (%) (8 hours) (CETP)	TG Concentration (%) [1, 2] [%]	TG Concentration (4 hours) [1] [%]	TG Concentration (%) (8 hours) [1]
CCC(CC)CC1(C(=O)Nc2ccccc2SC(=O)C(C)C)CCCCC1 [Compound A, S-{2-([[1-(2-ethylbutyl)cyclohexyl]carbonyl]amino)phenyl}2-methylpropanethioate]	83	87	–	–	–	–	–
CCN(C[C@H]1CC[C@H](CC(=O)O)CC1)c1cc(C)c(C(F)(F)F)cc1CN(Cc1cc(C(F)(F)F)cc(C(F)(F)F)c1)c1nnn(C)n1.CS(=O)(=O)O [Compound B, trans-(4-{[N-(2-{[N′-[3,5-bis(trifluoromethyl)benzyl]-N′-(2-methyl-2H-tetrazol-5-yl)amino]methyl}-5-methyl-4-trifluoromethylphenyl)-N-ethylamino]methyl}cyclohexyl)acetic acid methanesulfonate]	–	–	29	29	69	66	56
CCOC(=O)N1c2ccc(C(F)(F)F)cc2[C@@H](N(Cc2cc(C(F)(F)F)cc(C(F)(F)F)c2)C(=O)OC)C[C@H]1CC [Compound C]	–	–	20	37	69	85	71
